Assays:
[1] = target: voltage-gated sodium channel Nav1.7 (Homo sapiens (Human), UniProt Q15858); test: Nav1.7 screening assay, IonWorks Quattro automated patch-clamp electrophysiology; assay type: cell-based; conditions: stable CHO or HEK293 cell line expressing Nav1.7; percent block at peak 1 and peak 10; 5 minutes compound incubation; read-out: Nav 1.7 IC50
Experimental: (§1) Assay Procedure Nav1.7 and Nav1.5 Screening Assay
(§2) Stable cell lines expressing the full-length protein of the voltage-gated sodium channels Nav1.7 or Nav1.5, with or without one beta-1, beta-2, beta-3, or beta-4 subunit, are created by transfected CHO cells or HEK293 cells, or any other suitable cell line, with a vector construct containing the complete open reading frame under a suitable promoter, as well known in the art.
(§3) Electrophysiological studies are performed with an IonWorks Quattro (Molecular Devices Corp.) automated patch-clamp electrophysiology platform as described by (Schroeder K et al. Journal of Biomolecular Screening 2003, 8 (1), 50-64). Buffers for the experiments have the following composition (mM): Internal solution; K-gluconate 100, KCl 40, MgCl2 3.2, HEPES 5, EGTA 3, pH 7.3. To this amphotericin B is added to final concentration of 0.1 mg/ml to generate access solution. External solution; Dulbecco's Phosphate buffered saline (D-PBS) NaCl 137.93, KCl 2.67, KH2PO4 1.47, Na2HPO4 8.06, CaCl2 0.90, MgCl2 0.49. Prior to the experiment the cells expressing the voltage-gated ion channel of interest are detached from the tissue culture flasks, centrifuged and resuspended in D-PBS. Compounds are prepared and serially diluted in DMSO and finally diluted 1:100 in D-PBS. Cells are exposed to compounds through the pipetting system integrated into the platform and the voltage-gated ion channel of interest is activated with specific voltage stimulation protocols. The following voltage stimulation protocol is used for testing compounds against the voltage-gated sodium channel Nav1.7; from a holding potential of −100 mV a train of eight 60 ms depolarising steps to −20 mV at a frequency of 14 Hz are employed followed by a further step to −20 mV for 2000 ms. After which the voltage is returned to −100 mV for 10 ms before another voltage step to −20 mV for 60 ms is applied. The following voltage stimulation protocol is used for testing compounds against the voltage-gated sodium channel Nav1.5; from a holding potential of −120 mV a train of twenty-six 120 ms depolarising steps to −20 mV at a frequency of 5 Hz are employed. Recordings are made before and after compound addition with the compound incubation time being 5 minutes.

[2] = target: voltage-gated sodium channel Nav1.5 (Homo sapiens (Human), UniProt Q14524); test: Nav1.5 screening assay, IonWorks Quattro automated patch-clamp electrophysiology; assay type: cell-based; conditions: stable CHO or HEK293 cell line expressing Nav1.5; percent block at peak 1 and 25; 5 minutes compound incubation; read-out: Nav 1.5 IC50
Experimental: as §1, §2, §3

voltage-gated sodium channel Nav1.7, sequence (Q15858 whole entry): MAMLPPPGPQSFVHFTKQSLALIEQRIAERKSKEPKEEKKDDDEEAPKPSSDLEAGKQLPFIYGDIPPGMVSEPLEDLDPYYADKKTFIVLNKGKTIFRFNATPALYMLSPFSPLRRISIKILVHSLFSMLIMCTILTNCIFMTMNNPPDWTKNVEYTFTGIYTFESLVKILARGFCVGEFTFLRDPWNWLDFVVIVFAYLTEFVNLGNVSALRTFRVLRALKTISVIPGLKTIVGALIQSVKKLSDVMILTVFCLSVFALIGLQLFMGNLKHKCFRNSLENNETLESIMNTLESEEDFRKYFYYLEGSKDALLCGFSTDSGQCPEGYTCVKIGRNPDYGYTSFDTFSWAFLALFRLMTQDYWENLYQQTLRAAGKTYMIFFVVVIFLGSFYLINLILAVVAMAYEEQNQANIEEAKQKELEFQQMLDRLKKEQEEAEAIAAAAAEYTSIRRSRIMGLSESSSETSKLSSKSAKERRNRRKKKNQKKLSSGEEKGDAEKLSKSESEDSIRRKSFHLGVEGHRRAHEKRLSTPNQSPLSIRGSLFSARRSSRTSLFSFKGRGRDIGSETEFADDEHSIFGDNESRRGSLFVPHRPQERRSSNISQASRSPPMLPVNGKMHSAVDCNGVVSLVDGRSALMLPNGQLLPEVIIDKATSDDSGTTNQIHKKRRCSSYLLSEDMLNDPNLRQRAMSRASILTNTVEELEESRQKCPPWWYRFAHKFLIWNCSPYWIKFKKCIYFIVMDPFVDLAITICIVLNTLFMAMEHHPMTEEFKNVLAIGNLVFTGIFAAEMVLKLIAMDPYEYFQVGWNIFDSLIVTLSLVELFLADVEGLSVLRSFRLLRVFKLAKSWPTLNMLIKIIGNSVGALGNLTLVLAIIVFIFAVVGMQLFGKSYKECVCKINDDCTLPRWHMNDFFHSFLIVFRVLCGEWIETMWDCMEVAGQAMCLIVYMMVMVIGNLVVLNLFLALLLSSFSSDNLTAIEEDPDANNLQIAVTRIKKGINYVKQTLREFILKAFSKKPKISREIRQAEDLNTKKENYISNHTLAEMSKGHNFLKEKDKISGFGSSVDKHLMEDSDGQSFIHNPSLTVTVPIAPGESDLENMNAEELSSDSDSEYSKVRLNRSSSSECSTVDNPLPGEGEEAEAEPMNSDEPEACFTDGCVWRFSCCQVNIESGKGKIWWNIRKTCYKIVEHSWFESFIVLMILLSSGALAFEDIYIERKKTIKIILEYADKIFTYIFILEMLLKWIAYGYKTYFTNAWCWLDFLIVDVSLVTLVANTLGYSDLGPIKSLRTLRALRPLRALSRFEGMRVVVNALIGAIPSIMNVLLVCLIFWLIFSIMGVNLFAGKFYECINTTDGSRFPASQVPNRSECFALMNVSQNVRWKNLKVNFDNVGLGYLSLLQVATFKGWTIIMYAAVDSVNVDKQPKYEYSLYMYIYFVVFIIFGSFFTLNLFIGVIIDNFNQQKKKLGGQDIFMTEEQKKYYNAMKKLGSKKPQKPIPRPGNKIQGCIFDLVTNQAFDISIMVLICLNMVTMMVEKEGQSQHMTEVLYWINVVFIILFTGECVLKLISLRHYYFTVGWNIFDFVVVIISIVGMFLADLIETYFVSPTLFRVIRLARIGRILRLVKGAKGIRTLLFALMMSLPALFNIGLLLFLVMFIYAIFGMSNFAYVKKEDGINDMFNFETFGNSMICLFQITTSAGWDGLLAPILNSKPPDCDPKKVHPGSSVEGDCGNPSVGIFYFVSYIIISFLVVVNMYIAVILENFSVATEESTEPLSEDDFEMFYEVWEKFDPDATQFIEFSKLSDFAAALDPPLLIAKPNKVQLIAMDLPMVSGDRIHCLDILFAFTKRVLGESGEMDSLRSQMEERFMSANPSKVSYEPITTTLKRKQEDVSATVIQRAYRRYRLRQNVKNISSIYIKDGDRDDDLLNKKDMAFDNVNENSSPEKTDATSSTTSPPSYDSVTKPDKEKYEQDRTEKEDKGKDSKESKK
voltage-gated sodium channel Nav1.5, sequence (Q14524 whole entry): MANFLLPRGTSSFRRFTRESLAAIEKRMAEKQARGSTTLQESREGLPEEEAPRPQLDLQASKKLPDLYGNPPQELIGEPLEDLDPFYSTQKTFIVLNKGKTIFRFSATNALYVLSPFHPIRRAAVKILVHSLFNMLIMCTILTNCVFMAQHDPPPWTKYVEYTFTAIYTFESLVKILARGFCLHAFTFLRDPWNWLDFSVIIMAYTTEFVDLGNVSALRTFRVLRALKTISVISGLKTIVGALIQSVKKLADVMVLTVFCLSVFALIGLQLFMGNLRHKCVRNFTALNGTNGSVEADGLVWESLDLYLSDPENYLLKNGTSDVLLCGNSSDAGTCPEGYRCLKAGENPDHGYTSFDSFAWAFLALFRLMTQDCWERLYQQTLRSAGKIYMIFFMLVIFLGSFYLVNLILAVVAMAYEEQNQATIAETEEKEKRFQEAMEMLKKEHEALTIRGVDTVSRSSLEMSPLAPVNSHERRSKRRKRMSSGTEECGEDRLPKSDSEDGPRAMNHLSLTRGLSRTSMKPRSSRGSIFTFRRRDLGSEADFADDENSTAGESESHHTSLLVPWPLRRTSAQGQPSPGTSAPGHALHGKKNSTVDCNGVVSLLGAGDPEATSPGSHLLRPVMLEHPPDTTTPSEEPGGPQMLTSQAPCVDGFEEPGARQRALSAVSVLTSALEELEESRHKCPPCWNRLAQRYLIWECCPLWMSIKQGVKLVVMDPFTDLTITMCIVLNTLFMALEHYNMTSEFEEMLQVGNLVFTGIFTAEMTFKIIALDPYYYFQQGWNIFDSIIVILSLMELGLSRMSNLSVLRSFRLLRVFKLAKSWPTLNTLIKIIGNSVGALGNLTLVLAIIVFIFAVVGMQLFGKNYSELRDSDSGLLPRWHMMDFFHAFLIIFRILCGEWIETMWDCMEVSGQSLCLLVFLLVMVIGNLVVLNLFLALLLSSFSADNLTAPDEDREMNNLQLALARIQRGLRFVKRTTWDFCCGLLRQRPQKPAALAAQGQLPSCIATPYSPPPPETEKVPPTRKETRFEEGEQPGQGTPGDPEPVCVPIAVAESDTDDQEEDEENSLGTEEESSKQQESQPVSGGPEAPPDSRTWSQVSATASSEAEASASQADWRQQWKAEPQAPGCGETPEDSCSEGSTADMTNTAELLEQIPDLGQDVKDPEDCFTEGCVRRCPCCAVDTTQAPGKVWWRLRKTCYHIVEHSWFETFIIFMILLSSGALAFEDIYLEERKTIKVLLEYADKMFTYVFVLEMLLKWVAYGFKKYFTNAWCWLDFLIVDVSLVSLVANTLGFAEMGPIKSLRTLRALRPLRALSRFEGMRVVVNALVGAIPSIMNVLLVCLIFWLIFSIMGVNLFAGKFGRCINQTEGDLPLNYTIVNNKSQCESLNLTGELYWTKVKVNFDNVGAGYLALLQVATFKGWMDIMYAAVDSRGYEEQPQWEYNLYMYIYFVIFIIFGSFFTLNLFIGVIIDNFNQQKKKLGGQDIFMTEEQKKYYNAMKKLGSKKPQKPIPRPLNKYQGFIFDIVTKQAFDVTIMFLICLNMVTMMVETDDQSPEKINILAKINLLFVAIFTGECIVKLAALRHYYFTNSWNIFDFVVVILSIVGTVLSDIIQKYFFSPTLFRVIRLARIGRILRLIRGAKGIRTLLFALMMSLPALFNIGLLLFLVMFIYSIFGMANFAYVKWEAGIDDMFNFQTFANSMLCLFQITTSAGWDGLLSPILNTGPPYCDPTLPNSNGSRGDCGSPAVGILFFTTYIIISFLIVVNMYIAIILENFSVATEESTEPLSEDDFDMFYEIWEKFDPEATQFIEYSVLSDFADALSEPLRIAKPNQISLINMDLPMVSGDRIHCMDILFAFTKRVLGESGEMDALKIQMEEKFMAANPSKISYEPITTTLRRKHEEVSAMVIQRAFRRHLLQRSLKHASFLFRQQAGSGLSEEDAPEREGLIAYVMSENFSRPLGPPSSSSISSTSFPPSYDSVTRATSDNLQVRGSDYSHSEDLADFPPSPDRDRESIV

Row | Molecule | IC50 [1] | IC50 [2]
1 | 6-(2-(2,2,3,3,3-pentafluoropropoxy)phenyl)-1H-indazol-3-amine [Example 14] | 560 nM | 8000 nM
2 | COc1ccc(OCC(F)(F)C(F)(F)F)c(-c2ccc3c(N)nn(C)c3c2)c1 [Example 3, 6-(5-methoxy-2-(2,2,3,3,3-pentafluoropropoxy)phenyl)-1-methyl-1H-indazol-3-amine] |  | > 33000 nM
3 | Cn1nc(NCCO)c2ccc(-c3ccccc3OCC(F)(F)C(F)(F)F)cc21 [Example 12, 2-(1-methyl-6-(2-(2,2,3,3,3-pentafluoropropoxy)phenyl)-1H-indazol-3-ylamino)ethanol] | 820 nM | > 33000 nM
4 | Cn1nc(NCCCO)c2ccc(-c3ccccc3OCC(F)(F)C(F)(F)F)cc21 [Example 27, 3-(1-methyl-6-(2-(2,2,3,3,3-pentafluoropropoxy)phenyl)-1H-indazol-3-ylamino)propan-1-ol] | 1500 nM | 19800 nM
5 | COc1cccc(-c2ccc3c(N)nn(C)c3c2)c1OCC(F)F [Example 41, 6-(2-(2,2-difluoroethoxy)-3-methoxyphenyl)-1-methyl-1H-indazol-3-amine] |  | > 33000 nM
6 | CN1CCC(CNc2nn(C)c3cc(-c4cccc(F)c4OCC(F)(F)F)ccc23)CC1 [Example 44, 6-(3-fluoro-2-(2,2,2-trifluoroethoxy)phenyl)-1-methyl-N-((1-methylpiperidin-4-yl)methyl)-1H-indazol-3-amine] | 1860 nM | 4500 nM
7 | Cn1nc(N)c2ccc(-c3cccnc3OCC(F)(F)F)cc21 [Example 47, 1-methyl-6-(2-(2,2,2-trifluoroethoxy)pyridin-3-yl)-1H-indazol-3-amine] | 2370 nM | > 33000 nM
8 | CNc1nn(C)c2cc(-c3cccc(F)c3OCC(F)F)ccc12 [Example 57, 6-(2-(2,2-difluoroethoxy)-3-fluorophenyl)-N,1-dimethyl-1H-indazol-3-amine] | 1300 nM | > 33000 nM
9 | Nc1nn(CCCO)c2cc(-c3ccccc3C(F)(F)F)ccc12 [Example 67, 3-(3-amino-6-(2-(trifluoromethyl)phenyl)-1H-indazol-1-yl)propan-1-ol] | 740 nM | 30000 nM
10 | Nc1nn(CCCO)c2cc(-c3ccccc3OC(F)(F)F)ccc12 [Example 68, 3-(3-amino-6-(2-(trifluoromethoxy)phenyl)-1H-indazol-1-yl)propan-1-ol] | 200 nM | 25000 nM
11 | COCCn1nc(N)c2ccc(-c3ccccc3OC(F)(F)F)cc21 [Example 82, 1-(2-methoxyethyl)-6-(2-(trifluoromethoxy)phenyl)-1H-indazol-3-amine] | 2000 nM | 

Further lines, with some results ahead:

Row | IC50 [1] | Molecule | IC50 [2]
12 | 320 nM | Cn1nc(N)c2ccc(-c3ccccc3OCC(F)(F)F)cc21 [Example 8, 1-methyl-6-(2-(2,2,2-trifluoroethoxy)phenyl)-1H-indazol-3-amine] | > 33000 nM
13 | 100 nM | Cn1nc(N)c2ccc(-c3cccc(F)c3OCC(F)(F)C(F)(F)F)cc21 [Example 22, 6-(3-fluoro-2-(2,2,3,3,3-pentafluoropropoxy)phenyl)-1-methyl-1H-indazol-3-amine] | > 33000 nM
14 | 560 nM | Cn1nc(N)c2ccc(-c3c(F)cccc3OCC(F)(F)C(F)(F)F)cc21 [Example 24, 6-(2-fluoro-6-(2,2,3,3,3-pentafluoropropoxy)phenyl)-1-methyl-1H-indazol-3-amine] | > 33000 nM
15 | 3650 nM | NC(=O)Cn1nc(N)c2ccc(-c3cccc(F)c3OCC(F)(F)C(F)(F)F)cc21 [Example 26, 2-(3-amino-6-(3-fluoro-2-(2,2,3,3,3-pentafluoropropoxy)phenyl)-1H-indazol-1-yl)acetamide] | 
16 | 200 nM | COc1cccc(-c2ccc3c(N)nn(C)c3c2)c1OCC(F)(F)F [Example 40, 6-(3-methoxy-2-(2,2,2-trifluoroethoxy)phenyl)-1-methyl-1H-indazol-3-amine] | > 33000 nM
17 | 290 nM | Cn1nc(N)c2ccc(-c3cccc(F)c3OCC(F)F)cc21 [Example 42, 6-(2-(2,2-difluoroethoxy)-3-fluorophenyl)-1-methyl-1H-indazol-3-amine] | 23000 nM
18 | 860 nM | Cn1nc(N)c2ccc(-c3cccc(F)c3OC(F)F)cc21 [Example 58, 6-(2-(difluoromethoxy)-3-fluorophenyl)-1-methyl-1H-indazol-3-amine] | > 33000 nM
